According to PMC5073051 (European journal of medicinal chemistry, 2016):

Columns and labels:
SAS cells = conditions: read-out: cytotoxicity IC50, SAS oral cancer cells; cited from earlier work
OEC-M1 cells = conditions: read-out: cytotoxicity IC50, OEC-M1 oral cancer cells; cited from earlier work
[1] = biological target: human placental glutathione S-transferase (GST); conditions: read-out: inhibition of human placental GST activity IC50; cited from earlier work
MDA-MB-231 cells = assay: HGF-induced cell migration wound-healing assay; conditions: Homo sapiens, MDA-MB-231, 24 h, read-out: Antimigratory activity IC50 ± SEM, MDA-MB-231, wound-healing assay, HGF 40 ng/mL, 24 h

COc1cc(/C=C/C(=O)OCCc2ccc(O)cc2)ccc1O [Compound 5, Tyrosol ferulate]
IC50 (SAS cells): > 100 µM | IC50 (OEC-M1 cells): > 100 µM

COc1cc(/C=C/COC(=O)/C=C/c2ccc(O)c(OC)c2)ccc1O [Compound 40, coniferyl ferulate]
IC50 [1]: 0.3 µM

COc1cc(/C=C/C=N/CCc2ccc(O)cc2)cc(OC)c1O [Compound 11]
IC50 (MDA-MB-231 cells): < 5 µM

O=C(/C=C/c1ccc(O)cc1)OCCc1ccc(O)cc1 [Compound 6, Tyrosol coumarate]
IC50 (SAS cells): > 100 µM | IC50 (OEC-M1 cells): > 100 µM
